In patent US20060100264A1, “3,3'-Diindolylmethane immune activating compositions” (priority 2004, published 2006):

Legend:
[1] = test system: interferon-inducible protein 56 (p56); test: p56 mRNA expression in DIM-treated MCF-7 cells (cDNA microarray, Northern blot, quantitative RT-PCR); type: cell-based, human
Method: Immune response activating effects of the DIM analogs are examined with cell-based assays for cytokine and cytokine receptor expression. […] We also used a sensitive sandwich ELISA assay to examine levels of IFNγ in medium from confluent cultures of MCF-7 cells that were treated for up to 3 days. DIM derivatives confirmed to have immune response activating activity in our reporter and ELISA assays are subsequently screened in a whole animal cytokine production and Y. enterocolitica infection studies, as described below in Examples VIII and IX.
An initial cDNA gene expression microarray screen of human breast cancer MCF-7 cells treated with DIM, followed by confirmation of results using Northern blots and quantitative RT-PCR, established the transcriptional activation of IFNγ, IFNγ receptor (IFNGR1), oligoadenylate-synthase (OAS) family member protein 69 (p69-OAS), and interferon-inducible protein 56 (p56), a protein closely related to OAS. […] Maximum induction for IFNγ, IFNGR1, p69-OAS and p56 were 4.6, 3.8, 3.2 and 4.0 fold, respectively.

TNF-α = test: Serum TNF-α by ELISA in mice after DIM; type: in vivo; conditions: 30 μg/kg DIM orally
Method: (§1) We firstly investigated the effect of unsubstituted DIM on the production of IL-6, G-CSF, IL-12, TNF-α and IFNγ. A groups of 3 mice was given 30 μg/kg of unsubstituted DIM orally and then sacrificed at 1, 3, 5, 8, and 24 h after drug challenge. Serum was collected, pooled, and assayed for IL-6, G-CSF, IL-12 and TNF-α by ELISA. […] DIM produced an increase in circulating levels of G-CSF and TNF-α with the 3 h time point being maximal. […] DIM also stimulated IL-12 and kinetics were slightly different since the increased levels were sustained for at least 24 h.

[2] = test system: Y. enterocolitica WA-314 serotype O:8; test: Y. enterocolitica infection of BALB/c mice, spleen bacterial numbers; type: in vivo
Method: Female, 6- to 8-week-old BALB/c mice are purchased from Charles River and kept under specific-pathogen-free conditions (positive-pressure cabinet).
Mice are given 30 μg/kg/day of a DIM or one of 24 substituted DIM compounds (Table 1, supra) orally, starting at 1 day prior to infection.
Freshly thawed, plasmid-harboring Y. enterocolitica WA-314 serotype O:8 organisms suspended in 0.1 ml of sterile phosphate-buffered saline (PBS), pH 7.4, are used for intravenous and oral infection as described previously (Autenrieth, et al. 1994. Infect. Immun. 62:2590-2599). The actual number of bacteria administered is determined by plating serial dilutions of the inoculum on Mueller-Hinton agar and counting CFU after an incubation period of 36 h at 26C. For kinetic studies, five mice per group are killed by carbon dioxide asphyxiation on days 1, 3, and 7 postinfection (p.i.) with 5×10^3 bacteria. Spleens are aseptically removed, and single-cell suspensions prepared by using 5 ml of PBS containing 0.1% bovine serum albumin. Duplicates of 0.1 ml of serial dilutions of these preparations are plated on Mueller-Hinton agar. The limit of detectable CFU is 25 (log1025=1.4).
In single end-point studies, bacterial numbers in spleens of treated BALB/c mice 7 days p.i. with 2×10^3 Y. enterocolitica show significant reductions compared with untreated controls.

IL-12 = test: Serum IL-12 by ELISA in mice after DIM; type: in vivo; conditions: 30 μg/kg DIM orally
Method: as §1

SMILES: c1ccc2c(Cc3c[nH]c4ccccc34)c[nH]c2c1 [DIM, 3,3′-Diindolylmethane]
- Maximum induction of p56 mRNA ([1]; MCF-7 cells treated with DIM): 4.0 fold
- Treatment time at which p56 expression was fully induced ([1]; MCF-7 cells treated with DIM): 6 h
- p56 mRNA level following 48 h of DIM treatment ([1]; MCF-7 cells, 48 h): returned to near control levels
- Time point of maximal circulating TNF-α (TNF-α): 3 h
- Severity of yersiniae infection [2]: reduce the severity of yersiniae infection
- Time for which increased IL-12 levels were sustained (IL-12): at least 24 h
